Consider 27 compounds from patent US9090583B2, “Benzopyrone estrogen receptor regulator” (BEIJING SHENOGEN PHARMA GROUP LTD., priority 2010, dated 2015).

One assay concerns MCF7 cells. The assay is described as follows: CellTiter-Glo Luminescent Cell Viability Assay on ER-positive breast cancer MCF-7 cells. As to conditions: average ± standard deviation when tested more than 3 times, read-out: Inhibition of the viability of breast cancer cells, IC50. Type of assay: cell-based, human. The source says:
B: In Vitro CellTiter-Glo® Luminescent Cell Viability Assay on ER-Positive Breast Cancer MCF-7 Cells:
MCF7 cells are breast cancer cell lines that highly express ER-66, ER-46 and ER-36. (Relevance of breast cancer cell lines as models for breast tumours: an update. Marc Lacroix, Guy Leclercq, Breast Cancer Research and Treatment (2004) 83, 249-289; Wang et al., Proc. Natl. Acad. Sci. U.S.A. 103:9063-9068 (2006)). MCF7 cells were obtained from ATCC and maintained in Dulbecco's Modified Eagles Medium (DMEM) and 10% fetal calf serum at 37° C., under 5% CO2 atmosphere. The cells were seeded on 96-well plate at a density of 6×10^3 cells per well. MCF7 cells were treated with a test compound dissolved in DMSO at the concentrations of zero, 0.3 μM, 0.5 μM, 1 μM, 2 μM, 3 μM, 5 μM, 10 μM, 20 μM, 30 μM, 50 μM and 100 μM for 72 hours. Treated cells were examined by CellTiter-Glo® Luminescent Cell Viability Assay Kit (Promega), and luminescence values were recorded with Envision.
(In ATP-based viability assays light output follows the ATP content of the culture.)

The subject of another assay is MDA-MB-231 cells. The assay is described as follows: CellTiter-Glo Luminescent Cell Viability Assay on ER-negative breast cancer MDA-MB-231 cells. Format: cell-based. As to conditions: average ± standard deviation when tested more than 3 times, read-out: Inhibition of the viability of breast cancer cells, IC50. The procedure:
A: In Vitro CellTiter-Glo® Luminescent Cell Viability Assay on ER-Negative Breast Cancer MDA-MB-231 Cells:
MDA-MB-231 cells were maintained at 37° C., under 5% CO2 atmosphere in DMEM containing 10% fetal calf serum. The cells were seeded on 96-well plate at a density of 6×10^3 cells per well. MDA-MB-231 cells were treated with a test compound dissolved in DMSO at the concentrations of zero, 0.3 μM, 0.5 μM, 1 μM, 2 μM, 3 μM, 5 μM, 10 μM, 20 μM, 30 μM, 50 μM and 100 μM for 72 hours. Treated cells were examined by CellTiter-Glo® Luminescent Cell Viability Assay Kit (Promega), and luminescence values were recorded with Envision.

Where two headings read alike, the source gives them in different places. Some results are limits rather than exact numbers.

“2-(benzo[b]thiazol-2-yl)-5,7-dihydroxy-3-methoxy-6,8-di(3-3-methyl-2-buten-1-yl)-4H-benzopyran-4-one [Compound 49]”: the IC50 (in general, the concentration at which inhibition is half-maximal) came to 17.8 µM in the assay with MCF7 cells (72 hours) and 17.9 µM in the assay on MDA-MB-231 cells (72 hours).
Take “2-(benzo[d][1,3]dioxo-5-yl)-5,7-dihydroxy-3-methoxy-6,8-di(3-methyl-2-buten-1-yl)-4H-benzopyran-4-one [Compound 21]”: the IC50 amounted to 47.2 ± 22.5 µM in the assay on MCF7 cells (72 hours) and 13.8 ± 2.1 µM with MDA-MB-231 cells (72 hours).
For “2-(piperazin-2-yl)-5,7-dihydroxy-3-methoxy-6,8-di(3-methyl-2-buten-1-yl)-4H-benzopyran-4-one [Compound 30]”, the figures for the IC50 in the assay with MCF7 cells (72 hours) and with MDA-MB-231 cells (72 hours) were over 100 µM and 77.2 µM, respectively.
Regarding `COc1ccc(-c2oc3c(CC=C(C)C)c(O)c(CC=C(C)C)c(O)c3c(=O)c2OC)cc1F` [Compound 1, 2-(3-fluoro-4-methoxyphenyl)-5,7-dihydroxy-3-methoxy-6,8-di(3-methyl-2-buten-1-yl)-4H-benzopyran-4-one], the IC50 in the assay with MCF7 cells (Homo sapiens, MCF7, 72 h) stood at 16 µM; in the assay on MDA-MB-231 cells (Homo sapiens, MDA-MB-231, 72 h), 14.2 ± 5.18 µM.
For `COc1c(-c2cccc(F)c2)oc2c(CC=C(C)C)c(O)c(CC=C(C)C)c(O)c2c1=O` [Compound 3, 2-(3-fluorophenyl)-5,7-dihydroxy-3-methoxy-6,8-di(3-methyl-2-buten-1-yl)-4H-benzopyran-4-one] the same measures were 10.4 ± 0.22 µM and 12.6 ± 2.4 µM.
As for `COc1cc(-c2oc3c(CC=C(C)C)c(O)c(CC=C(C)C)c(O)c3c(=O)c2OC)ccc1F` [Compound 9, 2-(4-fluoro-3-methoxyphenyl)-5,7-dihydroxy-3-methoxy-6,8-di(3-methyl-2-butylene-1-yl)-4H-benzopyran-4-one], the half-maximal inhibitory concentration (IC50) in the assay on MCF7 cells (72 hours) and with MDA-MB-231 cells (72 hours) was over 100 µM throughout.
As to `COc1c(-c2ccc(Cl)c(C)c2)oc2c(CC=C(C)C)c(O)c(CC=C(C)C)c(O)c2c1=O` [Compound 11, 2-(4-chloro-3-methylphenyl)-5,7-dihydroxy-3-methoxy-6,8-di(3-methyl-2-buten-1-yl)-4H-benzopyran-4-one], the IC50 was determined as 15.5 µM in the assay with MCF7 cells (Homo sapiens, MCF7, 72 h) and 13.8 µM in the assay on MDA-MB-231 cells (Homo sapiens, MDA-MB-231, 72 h).
Consider `COc1c(-c2ccc(Cl)c(Cl)c2)oc2c(CC=C(C)C)c(O)c(CC=C(C)C)c(O)c2c1=O` [Compound 12, 2-(3,4-dichlorophenyl)-5,7-dihydroxy-3-methoxy-6,8-di(3-methyl-2-butylene-1-yl)-4H-benzopyran-4-one], for which the IC50 was over 100 µM in the assay with MCF7 cells (72 hours) and 16.1 µM in the assay on MDA-MB-231 cells (72 hours).
Take `COc1c(-c2ccc(Cl)c(C(F)(F)F)c2)oc2c(CC=C(C)C)c(O)c(CC=C(C)C)c(O)c2c1=O` [Compound 13, 2-(4-chloro-3-trifluoromethylphenyl)-5,7-dihydroxy-3-methoxy-6,8-di(3-methyl-2-butylene-1-yl)-4H-benzopyran-4-one]: the results for the IC50 in the assay with MCF7 cells (72 hours) and with MDA-MB-231 cells (72 hours) were 35.4 µM and 22.7 µM, respectively.
Take `COc1c(-c2ccc(Cl)cc2F)oc2c(CC=C(C)C)c(O)c(CC=C(C)C)c(O)c2c1=O` [Compound 14, 2-(2-fluoro-4-chlorophenyl)-5,7-dihydroxy-3-methoxy-6,8-di(3-methyl-2-butylene-1-yl)-4H-benzopyran-4-one]: the IC50 in the assay with MCF7 cells (72 hours) came to 13.5 µM; in the assay on MDA-MB-231 cells (72 hours), 23.6 µM.
Regarding `COc1c(-c2ccc(C)cc2)oc2c(CC=C(C)C)c(O)c(CC=C(C)C)c(O)c2c1=O` [Compound 16, 2-(4-methylphenyl)-5,7-dihydroxy-3-methoxy-6,8-di(3-methyl-2-butylene-1-yl)-4H-benzopyran-4-one], the IC50 is over 100 µM in the assay on MCF7 cells (72 hours) and 16.3 µM in the assay on MDA-MB-231 cells (72 hours).
For `COc1c(-c2ccc(C(C)C)cc2)oc2c(CC=C(C)C)c(O)c(CC=C(C)C)c(O)c2c1=O` [Compound 17, 2-(4-isopropylphenyl)-5,7-dihydroxy-3-methoxy-6,8-di(3-methyl-2-butylene-1-yl)-4H-benzopyran-4-one], the IC50 in the assay with MCF7 cells (72 hours) was 40.1 µM; in the assay with MDA-MB-231 cells (72 hours), 25.6 µM.
Regarding `COc1c(-c2ccc3ccccc3c2)oc2c(CC=C(C)C)c(O)c(CC=C(C)C)c(O)c2c1=O` [Compound 19, 2-(naphthalen-2-yl)-5,7-dihydroxy-3-methoxy-6,8-di(3-methyl-2-butylene-1-yl)-4H-benzopyran-4-one], the IC50 in the assay on MCF7 cells (72 hours) is 27.4 µM; in the assay on MDA-MB-231 cells (72 hours) it was 13.7 ± 1.99 µM.
As for `COc1c(-c2ccc3c(c2)OCCO3)oc2c(CC=C(C)C)c(O)c(CC=C(C)C)c(O)c2c1=O` [Compound 20, 2-(2,3-dihydrobenzo[b][1,4]dioxan-6-yl)-5,7-dihydroxy-3-methoxy-6,8-di(3-methyl-2-buten-1-yl)-4H-benzopyran-4-one], the IC50 in the assay with MCF7 cells (72 hours) is over 100 µM; in the assay on MDA-MB-231 cells (72 hours) it was 12.6 µM.
Take `CCOc1ccc(-c2oc3c(CC=C(C)C)c(O)c(CC=C(C)C)c(O)c3c(=O)c2OC)cc1F` [Compound 23, 2-(3-fluoro-4-ethoxylphenyl)-5,7-dihydroxy-3-methoxy-6,8-di(3-methyl-2-buten-1-yl)-4H-benzopyran-4-one]: the IC50 with MCF7 cells (Homo sapiens, MCF7, 72 h) came out at 20.1 µM; in the assay on MDA-MB-231 cells (Homo sapiens, MDA-MB-231, 72 h) it was 28.8 µM.
For the compound `CCOc1ccc(-c2oc3c(CC=C(C)C)c(O)c(CC=C(C)C)c(O)c3c(=O)c2OC)cc1` [Compound 24, 2-(4-ethoxyphenyl)-5,7-dihydroxy-3-methoxy-6,8-di(3-methyl-2-buten-1-yl)-4H-benzopyran-4-one], the IC50 was over 100 µM in the assay on MCF7 cells (Homo sapiens, MCF7, 72 h) and over 100 µM in the assay on MDA-MB-231 cells (Homo sapiens, MDA-MB-231, 72 h).
For `COc1c(-c2cccnc2)oc2c(CC=C(C)C)c(O)c(CC=C(C)C)c(O)c2c1=O` [Compound 28, 2-(pyridin-3-yl)-5,7-dihydroxy-3-methoxy-6,8-di(3-methyl-2-buten-1-yl)-4H-benzopyran-4-one], the IC50 turned out to be 13.2 µM with MCF7 cells (Homo sapiens, MCF7, 72 h) and 18.1 ± 4.3 µM with MDA-MB-231 cells (Homo sapiens, MDA-MB-231, 72 h).
Regarding `COc1c(-c2ccccn2)oc2c(CC=C(C)C)c(O)c(CC=C(C)C)c(O)c2c1=O` [Compound 29, 2-(pyridin-2-yl)-5,7-dihydroxy-3-methoxy-6,8-di(3-methyl-2-buten-1-yl)-4H-benzopyran-4-one], the IC50 in the assay on MCF7 cells (Homo sapiens, MCF7, 72 h) was 12 µM; in the assay on MDA-MB-231 cells (Homo sapiens, MDA-MB-231, 72 h), over 100 µM.
For `COc1c(-c2ccncc2)oc2c(CC=C(C)C)c(O)c(CC=C(C)C)c(O)c2c1=O` [Compound 31, 2-(pyridin-4-yl)-5,7-dihydroxy-3-methoxy-6,8-di(3-methyl-2-buten-1-yl)-4H-benzopyran-4-one] the same measures were over 100 µM and 25.1 µM.
Consider `COc1c(-c2cncnc2)oc2c(CC=C(C)C)c(O)c(CC=C(C)C)c(O)c2c1=O` [Compound 32, 2-(pyrimidin-5-yl)-5,7-dihydroxy-3-methoxy-6,8-di(3-methyl-2-buten-1-yl)-4H-benzopyran-4-one], for which the IC50 in the assay with MCF7 cells (Homo sapiens, MCF7, 72 h) turned out to be 34.4 µM; with MDA-MB-231 cells (Homo sapiens, MDA-MB-231, 72 h) it was 20 µM.
On the same counts, the results for `COc1c(-c2ncccn2)oc2c(CC=C(C)C)c(O)c(CC=C(C)C)c(O)c2c1=O` [Compound 33, 2-(pyrimidin-2-yl)-5,7-dihydroxy-3-methoxy-6,8-di(3-methyl-2-buten-1-yl)-4H-benzopyran-4-one] are over 100 µM and 22.3 µM.
As for `COc1c(C2CC2)oc2c(CC=C(C)C)c(O)c(CC=C(C)C)c(O)c2c1=O` [Compound 34, 2-cyclopropyl-5,7-dihydroxy-3-methoxy-6,8-di(3-methyl-2-buten-1-yl)-4H-benzopyran-4-one], the IC50 in the assay on MCF7 cells (Homo sapiens, MCF7, 72 h) is over 100 µM; in the assay on MDA-MB-231 cells (Homo sapiens, MDA-MB-231, 72 h), 25.6 µM.
As for `COc1c(C2CCC2)oc2c(CC=C(C)C)c(O)c(CC=C(C)C)c(O)c2c1=O` [Compound 35, 2-cyclobutyl-5,7-dihydroxy-3-methoxy-6,8-di(3-methyl-2-buten-1-yl)-4H-benzopyran-4-one], the IC50 was 88.1 µM with MCF7 cells (Homo sapiens, MCF7, 72 h) and over 100 µM in the assay on MDA-MB-231 cells (Homo sapiens, MDA-MB-231, 72 h).
For `COc1c(C2CCCC2)oc2c(CC=C(C)C)c(O)c(CC=C(C)C)c(O)c2c1=O` [Compound 36, 2-cyclopentyl-5,7-dihydroxy-3-methoxy-6,8-di(3-methyl-2-buten-1-yl)-4H-benzopyran-4-one] the same measures were over 100 µM and over 100 µM.
For the compound `COc1c(C2CCOC2)oc2c(CC=C(C)C)c(O)c(CC=C(C)C)c(O)c2c1=O` (centres unmarked) [Compound 38, 2-(terthydrofuran-3-yl)-5,7-dihydroxy-3-methoxy-6,8-di(3-methyl-2-buten-1-yl)-4H-benzopyran-4-one], the figures for the IC50 in the assay with MCF7 cells (72 hours) and with MDA-MB-231 cells (72 hours) were 22.9 µM and over 100 µM, respectively.
For `COc1c(-c2cccs2)oc2c(CC=C(C)C)c(O)c(CC=C(C)C)c(O)c2c1=O` [Compound 39, 2-(thiophen-2-yl)-5,7-dihydroxy-3-methoxy-6,8-di(3-methyl-2-buten-1-yl)-4H-benzopyran-4-one], the IC50 was 65.8 µM in the assay on MCF7 cells (Homo sapiens, MCF7, 72 h) and over 100 µM in the assay with MDA-MB-231 cells (Homo sapiens, MDA-MB-231, 72 h).
Regarding `CC(C)=CCc1c(O)c(CC=C(C)C)c2oc(-c3ccc(F)cc3)c(O)c(=O)c2c1O` [Compound 97, 2-(4-fluorophenyl)-3,5,7-trihydroxy-6,8-di(3-methyl-2-buten-1-yl)-4H-benzopyran-4-one], the IC50 in the assay on MDA-MB-231 cells (Homo sapiens, MDA-MB-231, 72 h) is 21.4 µM.
